Test results from patent US20240300975A1, “DIMETHYL-SUBSTITUTED THIAZOLOLACTAM COMPOUND AND USE THEREOF” (D3 Bio (Wuxi) Co., Ltd., priority 2021, published 2024).

Tests used:
hERG potassium channel = hERG potassium channel (Homo sapiens (Human), UniProt Q12809); experiment: hERG assay (automated patch-clamp, CHO-hERG cells); type: cell-based; settings: Qpatch, highest assayed concentration 40 μM
Protocol: A fully automated patch-clamp method was used to assay the effect of the compound on hERG potassium channel (human Ether-a-go-go Related Gene potassium channel) current.
CHO-hERG cells were cultured in a 175 cm^2 culture flask. When cells grew to a density of 60˜80%, the culture medium was removed. Cells were washed once with 7 mL of PBS (Phosphate Buffered Saline), and then 3 mL of Detachin was added for digestion. After the digestion was completed, 7 mL of culture medium was added for neutralization, and then the mixture was centrifuged. The supernatant was aspirated, and then 5 mL of culture medium was added to resuspend the cells and ensure that the cell density was 2˜5×10^6/mL.
Extracellular solution formulation (mM): 140 NaCl, 5 KCl, 1 CaCl2), 1.25 MgCl2, 10 HEPES and 10 Glucose; the formulation was adjusted to pH of 7.4 with NaOH. […]
The single-cell high-impedance sealing and whole-cell pattern formation processes were all automatically performed by a Qpatch instrument. […] This voltage stimulation was applied every 15 seconds, and recorded for 2 minutes. The extracellular solution was then given, and recorded for 5 minutes. […]
Assay data were analyzed by GraphPad Prism 5.0 software. […]
• The inhibitory effect of Cisapride with multiple concentrations on the hERG channel was measured as a positive control.

monkey plasma albumin = experiment: Plasma protein binding (PPB), monkey plasma; type: in vitro ADME; settings: ultracentrifugation, 37° C., 4 h
Protocol: (§1) The binding degree of the assay compound to human/mouse/rat/canine/monkey plasma albumin was studied.
(§2) • 1) Matrix preparation: on the day of the assay, plasma was thawed in cold water and centrifuged at 3220 rpm for 5 min to remove all clots. The pH of the resulting plasma was measured and adjusted to 7.4±0.1 using 1% phosphoric acid or 1N sodium hydroxide as needed. • 2) Dilution procedure for the assay compound: the assay compound was dissolved in dimethyl sulfoxide (DMSO) to prepare stock solutions with concentrations of 10 mM and 2 mM, respectively. A 40 μM working solution was prepared by diluting 2 μL of stock solution (2 mM) with 98 μL of DMSO. A 400 μM working solution of the control compound was prepared by diluting 10 μL of stock solution with 240 μL of DMSO. The working solution of the compound (5 μL) was mixed well with a blank matrix (995 μL) at a ratio of 1:200 to prepare a loading matrix.
(§3) • a) An equal volume of 30 μL of loading matrix (n=2) was transferred to a sample collection plate to prepare a time 0 (TO) sample for residue determination. The sample was immediately matched with the corresponding blank buffer to a final volume of 60 μL, and the volume ratio of plasma to buffer in each well was 1:1. […] The mixture was centrifuged at 4000 rpm for 20 min and 100 μL of supernatant from each sample was analyzed by LC-MS/MS.

mouse plasma albumin = experiment: Plasma protein binding (PPB), mouse plasma; type: in vitro ADME; settings: ultracentrifugation, 37° C., 4 h
Protocol: as §1, §2, §3

[1] = In vivo PK study in cynomolgus monkeys; settings: male cynomolgus monkeys
Protocol: Male cynomolgus monkeys were used as assay animals. After a single administration, the plasma concentration of the compound was measured and the pharmacokinetic behavior was evaluated.
Five healthy adult male cynomolgus monkeys were selected, wherein 2 animals were in an intravenous injection group, and 3 animals were in an oral group. The vehicle in the intravenous injection group was 5% DMSO+95% (20% HP-β-CD). The compound to be assayed was mixed with an appropriate amount of vehicle for intravenous injection, and dissolved with stirring to prepare a clear solution of 0.4 mg/mL. The clear solution was filtered by a microporous membrane, and then ready for use. The vehicle in the oral group was 5% DMSO+95% (20% HP-β-CD). The compound to be assayed was mixed with the vehicle, and dissolved with stirring to prepare a solution of 0.3 mg/mL. Cynomolgus monkeys were administered 1 mg/kg intravenously or 3 mg/kg orally, and then whole blood was collected for a certain period. Plasma was prepared. The drug concentration was analyzed by LC-MS/MS method, and the pharmacokinetic parameters were calculated by Phoenix WinNonlin software (Pharsight, USA).

Chain of hERG potassium channel (Q12809 whole entry): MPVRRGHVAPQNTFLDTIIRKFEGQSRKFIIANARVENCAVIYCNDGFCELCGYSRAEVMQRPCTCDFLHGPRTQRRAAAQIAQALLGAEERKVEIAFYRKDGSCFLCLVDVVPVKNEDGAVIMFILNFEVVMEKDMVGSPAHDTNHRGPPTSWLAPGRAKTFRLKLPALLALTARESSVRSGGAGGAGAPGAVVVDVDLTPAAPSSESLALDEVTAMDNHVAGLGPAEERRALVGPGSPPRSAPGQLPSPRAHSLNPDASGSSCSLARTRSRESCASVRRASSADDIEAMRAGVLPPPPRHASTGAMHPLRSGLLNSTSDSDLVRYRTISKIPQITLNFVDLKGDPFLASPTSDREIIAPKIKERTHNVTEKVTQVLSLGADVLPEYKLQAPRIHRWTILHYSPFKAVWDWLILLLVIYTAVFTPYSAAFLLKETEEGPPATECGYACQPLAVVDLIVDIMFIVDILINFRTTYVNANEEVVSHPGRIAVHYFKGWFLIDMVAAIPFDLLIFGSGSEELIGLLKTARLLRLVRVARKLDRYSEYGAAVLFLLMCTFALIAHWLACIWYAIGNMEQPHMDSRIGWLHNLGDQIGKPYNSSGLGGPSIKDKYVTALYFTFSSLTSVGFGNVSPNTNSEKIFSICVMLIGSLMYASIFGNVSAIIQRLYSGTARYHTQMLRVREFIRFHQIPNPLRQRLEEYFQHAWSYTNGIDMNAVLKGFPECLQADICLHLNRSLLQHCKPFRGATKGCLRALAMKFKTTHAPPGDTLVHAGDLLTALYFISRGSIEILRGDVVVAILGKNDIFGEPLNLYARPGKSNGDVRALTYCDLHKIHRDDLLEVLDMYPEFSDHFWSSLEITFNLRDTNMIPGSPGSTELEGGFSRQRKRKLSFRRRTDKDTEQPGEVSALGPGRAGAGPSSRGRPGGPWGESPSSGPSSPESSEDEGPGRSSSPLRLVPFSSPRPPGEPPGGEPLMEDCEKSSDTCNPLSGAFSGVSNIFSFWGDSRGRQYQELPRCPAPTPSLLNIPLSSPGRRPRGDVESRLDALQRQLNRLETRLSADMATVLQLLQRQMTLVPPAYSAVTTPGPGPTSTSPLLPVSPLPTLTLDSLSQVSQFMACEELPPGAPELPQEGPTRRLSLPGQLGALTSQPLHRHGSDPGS

Question: With `Cc1cccc(CN2C(=O)c3nc(-c4nc(Nc5ccnn5C)ncc4C)sc3C2(C)C)n1` [WX001] as the compound, how does the IC50 (hERG potassium channel) read?
Answer: The IC50 was greater than 40 µM.

Question: What about the “Plasma protein binding rate (unbound %)” value (monkey plasma albumin) of the same compound?
Answer: Its value is 2.6%.

Question: What about the “Plasma protein binding rate (unbound %)” value (mouse plasma albumin) of the same compound?
Answer: The value was 7.2%.

Question: What about the clearance ([1]; cynomolgus monkey, plasma, iv, 1 mg/kg intravenously) of the same compound?
Answer: Its clearance is 7.9 mL/min/kg.

Question: What about the Vd ([1]; cynomolgus monkey, plasma, iv, 1 mg/kg intravenously, read-out: Vdss) of the same compound?
Answer: Its Vd is 1.19 L/kg.

Question: And the bioavailability ([1]; cynomolgus monkey, plasma, oral, 1 mg/kg intravenously / 3 mg/kg orally, read-out: F % (oral bioavailability))?
Answer: Its bioavailability is 41%.

Question: And the half-life ([1]; cynomolgus monkey, plasma, single administration)?
Answer: Its half-life is 2 h.

Question: And the Cmax ([1]; cynomolgus monkey, po, 3 mg/kg orally, plasma)?
Answer: Its Cmax is 1250 nM.

Question: And the “Oral DNAUC (AUCPO/Dose)” value ([1]; 3 mg/kg orally)?
Answer: The value was 1995.93 nM · h/mpk.
